This experiment relates to traumatic osteonecrosis (femoral head). In words: Model of traumatic osteonecrosis of the femoral head in rats, six weeks after operation. In kind it is in vivo, Wistar rats. The following applies: for BMC / BMD: femoral head, DEXA; for XR Head Area (% Contra): operated femoral head, six weeks. The source says: A model of traumatic osteonecrosis was utilised in 24 female 14-week-old Wistar rats. The animals were followed for six weeks after an operation designed to disrupt the blood supply to the femoral head. The six week time point was chosen as a time point when femoral head collapse is known to have occurred in this model ^1. Animal ethics approval was received.
Rats were randomised in lots of 4 into three groups according to the schedule below. Controls receive only saline (S) injections via a subcutaneous route. Post-treated animals received saline only pre-operatively, but zoledronic acid (ZA) (Novartis) 0.1 mg/kg, from commercial stock, was administered by subcutaneous injection post-operatively at 1 and 4 weeks. Pre and Post-treated animals received zoledronic acid 0.1 mg/kg at all three time points.
The same operation was performed on each rat at time zero. All animals were weighed accurately before anaesthesia. Animals were kept warm during surgery and recovery. Anaesthesia was induced with a mixture of Ketamine 75 mg/kg and Xylazine 10 mg/kg. Drugs were mixed in the same syringe just prior to administration and given 0.2 mL per 100 g BW IM. Induction occurred within 5-10 minutes.
After sterile preparation and shaving of the right lower extremity, an open approach was made to the hip joint. The capsule was opened, and the right femoral head was dislocated from the acetabulum. The ligamentum teres divided, disrupting any blood supply from that source. The entire femoral neck was denuded of soft tissue by polishing with a vicryl suture. This disrupted the lateral epiphyseal artery and any other vessels supplying the head via the femoral neck.
Dual fluorescent labels were applied at weeks 4 and 5: at week 4 demeclocycline 30 mg/kg was administered intraperitoneally, and at week 5 calcein 20 mg/kg was administered intraperitoneally. One hour prior to culling 70 MBq Tc99 MDP was administered subcutaneously to allow bone scintigraphy to be performed on harvested specimens.
After culling, right and left proximal femora were harvested and fixed in 4% paraformaldehyde. Radiographs were taken in pairs on high quality film with a Faxitron Shielded Cabinet X-Ray System (Hewlett Packard, McMinnville, Oreg. X-ray images were digitised and analysed using Bioquant image analysis system (R&M Biometrics Inc., Nashville, Tenn.) connected to a digitizing tablet (GTCO CalComp, Inc., Columbia, Md.). Bone area, height and width of the femoral head were recorded and compared to the contralateral side. Scintigraphy scans were taken using 4 mm aperture pinholes. BMD and BMC were measured with a pDEXA Sabre scanner (Norland, Ft Atkinson Wis.).
Specimens were resin embedded and sectioned undecalcified. Coronal sections (6 microns) were cut through the femoral head. Sections were stained with von Kossa to assess trabecular bone volume and structure. Fluorescent microscopy was used on unstained sections to image the fluorescent labels and assess bone formation.

Setting [1] is: Post-Treated: 0.1 mg/kg s.c. at 1 and 4 weeks post-operatively.
The mark [2] stands for this setting: Pre- and Post: 0.1 mg/kg s.c. at all three time points.

Consider one compound from patent US7425549B2, “Drug for the treatment of osteonecrosis and for the management of patients at risk of developing osteonecrosis” (The Royal Alexandra Hospital for Children, priority 2001, dated 2008).

As for `O=P(O)(O)C(O)(Cn1ccnc1)P(=O)(O)O` [zoledronic acid, 1-hydroxy-2-[(1H-imidazol-1-yl)ethylidine] bisphosphonic acid], under setting [1], the BMC was found to be 0.012 g, the BMD came to 0.11 g/cm^2 and the “XR Head Area (% Contra)” value is on record as 79 % Contra. Besides, under setting [2], the BMC is 0.015 g, the BMD was found to be 0.12 g/cm^2 and the “XR Head Area (% Contra)” value was determined as 85 % Contra.
